We go through nine molecules from US20120245357A1, “ALR2 INHIBITORS AND THEIR SYNTHESIS FROM A NATURAL SOURCE” (COUNCIL OF SCIENTIFIC & INDUSTRIAL RESEARCH, priority 2010, published 2012).

Where two headings read alike, the source gives them in different places.

One experiment has as its target T1, human recombinant ALR2 (Homo sapiens, UniProt P15121).
T1 construct: made in house; host or cells: E. coli JM101
In words: ALR2 inhibition and determination of IC50 values (NADPH oxidation at 340 nm). It is filed as biochemical. How it is done:
Transformed cells were selected on LB-medium containing 50 μg/ml spectinomycin and were grown overnight at 37° C. in LB broth containing M9 medium supplemented with 1% casamino acids, […] thiamine, and 0.05% trace metals. Culture was induced by isopropyl thiogalactoside (IPTG) at the final concentration of 1 mM and grown for additional 2 hours. Cells were harvested by spinning at 2000 g for 5 min at 4° C. and subjected to osmotic fractionation by suspending them in 20% sucrose, 30 mM Tris pH 7.5, 1 mM EDTA, and then cells were incubated at 23° C. for 15 min. After incubation, cells were recovered by centrifugation for 15 min at 2000 g at 4° C. Supernatant (sucrose wash) was reserved and pellet was resuspended in 1 ml of ice cold deionized water and incubated for 10 min on ice. Again cells were recovered by centrifugation at 12000 g for 5 min at 4° C. Supernatant (water wash) was reserved and pellet was resuspended in 1 ml of ice cold deionized water. Osmotic shock extract was further subjected to purification.
Osmotic shock extract was subjected to 50-80% ammonium sulphate fractionation followed by centrifugation at 10,000 g for 20 min. The pellet obtained was resuspended in 100-200 ml of 25 mM imidazole-HCl, pH 7.4. Crude lysate was applied to chromatography column packed with PBE 94 chromatofocussing resin, which had been previously equilibrated with 25 mM imidazole. Proteins were eluted from the column with 1:8 diluted polybuffer pH 7.4. Column eluant was continuously monitored by measuring absorbance at 280 nm. Fractions containing ALR2 activity were pooled and dialyzed against 10 mM potassium phosphate buffer containing 0.5 mM EDTA. Dialyzed samples were then applied to 30×2.5 cm at hydroxylapatite column equilibrated with 10 mM potassium phosphate buffer pH 7.4 containing 0.5 mM EDTA at a flow rate of 60 ml/h. The enzyme was eluted with a linear gradient 10-300 mM potassium phosphate buffer, pH 7.0. Fractions from each purification step are subjected to SDS-PAGE. Fractions containing ALR2 activity were pooled, concentrated and stored at −20° C. until further inhibition studies.
The assay mixture in 1 ml contained 50 mM potassium phosphate buffer, pH 6.2, 0.2 mM lithium sulfate, 5 mM 2-mercaptoethanol, 1 mM DL-glyceraldehyde, 0.1 mM NADPH and recombinant ALR2. Appropriate blanks were employed for corrections. The assay mixture was incubated at 37° C. and initiated by the addition of NADPH at 37° C. The change in the absorbance at 340 nm due to NADPH oxidation was monitored in a Lamda35 spectrophotometer (Perkin-Elmer, Shelton, USA).
For inhibition studies concentrated stocks of compounds prepared in dimethyl sulfoxide were used and the final concentration of DMSO was not more than 1% of the assay volume. Various concentrations of the above mentioned analogues were added to assay mixture of ALR2 and incubated for 5 min before initiating the reaction by NADPH as described above. The percentage inhibition was calculated considering the activity in the absence of compound as 100%. The IC50 values were determined by nonlinear regression analysis of the plot of percent inhibition versus log compound concentration.

Another experiment deals with human RBC. In words: Inhibition of sorbitol formation in RBC under high glucose conditions (ex vivo). It is filed as cell-based. Conditions: human RBC incubated under high glucose condition (55 mM), 3 hrs. The protocol:
In vitro incubation of RBC: Five mL blood was collected from healthy male volunteers on overnight fasting in heparinized tubes. Red blood cells were separated by centrifugation (3000 rpm/min about 30 min) and washed three times with isotonic saline at 4° C. Washed RBC were suspended in Kreb's-ringer bicarbonate buffer, pH 7.4 (pre-equilibrated with 5% CO2) and incubated at 37° C. in presence of 5% CO2 for 3 hrs under normal (5.5 mM) and high glucose (55 mM) conditions in duplicates. The effect of compounds on sorbitol accumulation was evaluated by incubating the RBC with different concentrations of compounds.
Estimation of sorbitol in RBC: At the end of incubation period, RBC was homogenized in 9 volumes of 0.8 M perchloric acid. The homogenate was centrifuged at 5,000 g at 4° C. for 10 min and the pH of the supernatant was adjusted to 3.5 with 0.5 M potassium carbonate. The sorbitol content of the supernatant was measured by fluorometric method using a spectrofluorometer (Jasco-FP-6500).

The mark [1] stands for this setting: human recombinant ALR2, read-out: IC50 value, ALR2 inhibition.
[2] abbreviates: recombinant human ALR2 in vitro, average of four experimental values, read-out: IC-50.

Consider `COc1cc(C(CC(=O)N2CCC=CC2=O)c2c[nH]c3ccc(Br)cc23)cc(OC)c1OC` (racemic) [2g, 1-(3-(5-bromo-1H-indol-3-yl)-3-(3,4,5-trimethoxyphenyl)propanoyl)-5,6-dihydropyridin-2(1H)-one], for which the IC50 at human recombinant ALR2 (SAR studies text, read-out: IC50, in-vitro aldose reductase inhibition) is 60 µM; at human recombinant ALR2 (setting [1]), 15 µM.
As for `COc1ccc2[nH]cc(C(CC(=O)N3CCC=CC3=O)c3cc(OC)c(OC)c(OC)c3)c2c1` (stereo not shown) [2j, 1-(3-(5-methoxy-1H-indol-3-yl)-3-(3,4,5-trimethoxyphenyl)propanoyl)-5,6-dihydropyridin-2(M)-one], at human recombinant ALR2 (setting [1]), the IC50 came out at 8 µM. Also, the “% inhibition of sorbitol formation” value in the experiment on human RBC is on record as 64.9%.
In the same order, the values of `COc1cc(C(CC(=O)N2CCC(c3cn(Cc4ccccc4)c4ccccc34)CC2=O)c2cn(Cc3ccccc3)c3ccccc23)cc(OC)c1OC` (stereo not shown) [3c, 1-(3-(1-benzyl-1H-indol-3-yl)-3-(3,4,5-trimethoxyphenyl)propanoyl)-4-(1-benzyl-1H-indol-3-yl)piperidin-2-one] are 4 µM and 58.5%.
As to `COc1cc(C(CC(=O)N2CCC(c3c(C)[nH]c4ccccc34)CC2=O)c2c(C)[nH]c3ccccc23)cc(OC)c1OC` (stereo not shown) [3d, 1-(3-(3,4,5-trimethoxyphenyl)-3-(2-methyl-1H-indol-3-yl)propanoyl)-4-(2-methyl-1H-indol-3-yl)piperidin-2-one], the IC50 at human recombinant ALR2 (setting [2]) was 40 µM.
On to `COc1cc(C(CC(=O)N2CCC(c3c(-c4ccccc4)[nH]c4ccccc34)CC2=O)c2c(-c3ccccc3)[nH]c3ccccc23)cc(OC)c1OC` (stereo not shown) [3e, 1-(3-(3,4,5-trimethoxyphenyl)-3-(2-phenyl-1H-indol-3-yl)propanoyl)-4-(2-phenyl-1H-indol-3-yl)piperidin-2-one], for which the IC50 on human recombinant ALR2 (setting [2]) was 4 µM. Moreover, the “% inhibition of sorbitol formation” value with human RBC is 68%.
As to `COc1cc(/C=C/C(=O)N2CCC=CC2=O)cc(OC)c1OC` [Piplartine, 5,6-dihydro-1-((E)-3-(3,4,5-trimethoxyphenyl)acryloyl)pyridin-2(1H)-one], the IC50 at human recombinant ALR2 (setting [1]) came to 160 µM.
As for `COc1cc(C(CC(=O)O)c2c(C)[nH]c3ccccc23)cc(OC)c1OC` (stereo not shown) [compound 4, 3-(3,4,5-trimethoxyphenyl)-3-(2-methyl-1H-indol-3-yl)propanoic acid], at human recombinant ALR2, the “ALR2 inhibitory activity (in words)” value is “inactive”.
For the molecule `COC(=O)/C=C/c1cc(OC)c(OC)c(OC)c1` [compound 5, (E)-methyl 3-(3,4,5-trimethoxyphenyl)acrylate], the “ALR2 inhibitory activity (in words)” value at human recombinant ALR2 was “inactive”.
Regarding pipernal, the IC50 on human recombinant ALR2 (setting [1]) was 310 µM.
